Publication PMC6566077 (Chemical Science, 2019)
In brackets after ≈: the same amount, converted by molar mass. Where two headings read alike, the source gives them in different places.

How the values were obtained:
[1] = format: binding; conditions: for BLI binding to boronic acid functionalised sensor: components 0-100 µg/mL; for Kd: BLI, steady-state model, boronic acid functionalised sensor
[2] = system: Escherichia coli; experiment: microbe, parasite or virus in culture; format: cell-based, Escherichia coli (Top 10)
[3] = system: Mycobacterium bovis BCG; experiment: microbe, parasite or virus in culture; format: cell-based; conditions: for MIC: Mycobacterium tuberculosis variant bovis BCG, BCG, read-out: MIC Mycobacteria, Mycobacterium bovis BCG
[4] = system: Mycobacterium smegmatis; experiment: microbe, parasite or virus in culture; format: cell-based, Mycobacterium smegmatis MC2155; conditions: for MIC: Mycolicibacterium smegmatis, read-out: MIC Mycobacteria, Mycobacterium smegmatis
[5] = system: Pseudomonas putida; experiment: microbe, parasite or virus in culture; format: cell-based
[6] = system: Mycobacterium tuberculosis; experiment: microbe, parasite or virus in culture; format: cell-based, Mycobacterium tuberculosis H37Rv
[7] = system: M. tuberculosis H37Rv; format: cell-based, Mycobacterium tuberculosis H37Rv; conditions: checkerboard
[8] = system: M. tuberculosis H37Rv; format: cell-based, Mycobacterium tuberculosis H37Rv; conditions: for Outcome, interaction profile with Meropenem / ΣFIC, interaction profile with Meropenem: M. tuberculosis H37Rv, checkerboard; for Interaction with meropenem in checkerboard assay (words, Figure S7): representative checkerboard images
[9] = system: Jurkat E6.1 cells; experiment: Cytotoxicity assay (resazurin, 24 h); format: cell-based, human; conditions: 24 h exposure, viability by resazurin
[10] = system: Mycobacterium tuberculosis H37Rv; experiment: Minimum bactericidal concentration (MBC), CFU plating; format: cell-based; conditions: actively growing M. tuberculosis H37Rv, lowest concentration with no CFUs
[11] = system: A549 cells; experiment: Cytotoxicity assay (resazurin, 24 h); conditions: 24 h exposure, viability by resazurin
[12] = system: Caco-2 cells; experiment: Cytotoxicity assay (resazurin, 24 h); format: cell-based, human; conditions: 24 h exposure, viability by resazurin
[13] = system: ConA mediated agglutination of ovine blood; format: cell-based
[14] = Haemolysis assay; format: cell-based; conditions: sheep, ovine red blood cells, versus 100% lysis with lysis buffer
Procedure: (§1) Following incubation for 24 hours at
(§2) at 570 nm (BioTek Synergy HT microplate reader). All assays were undertaken with 3 independent experimental
(§3) Two-fold serial dilutions were then carried out diluting
(§4) 100 μL of ovine blood was
(§5) HT Microplate Reader). […] All assays
(§6) were undertaken with 3 independent experimental repeats.
(§7) DMSO compounds for compounds 3, 6 and 8.
(§8) Following addition of the
(§9) red colouring across whole well = agglutination). All assays were undertaken with three independent experimental

[15] = system: A549 cells
[16] = system: ovine red blood cells; experiment: Haemolysis assay; format: cell-based; conditions: 1 hour, tested at 12.5 mM due to solubility issues
Procedure: as §1, §2, §3, §4, §5, §6, §7, §8, §9

[17] = Escherichia coli; read-out: MIC Gram-negative, Escherichia coli
[18] = Pseudomonas putida; read-out: MIC Gram-negative, Pseudomonas putida
[19] = Mycobacterium tuberculosis; M. tuberculosis H37Rv, compound alone, REMA checkerboard (Table S3); read-out: MIC
[20] = Mycobacterium tuberculosis; read-out: MIC Mycobacteria, Mycobacterium tuberculosis

## mycolic acid methyl esters [MAMEs]
[1]
  BLI binding to boronic acid functionalised sensor: no detectable binding

## Lipoarabinomannan [LAM]
[1]
  Kd: 41.5 μg mL^–1
  BLI binding to boronic acid functionalised sensor: interacted strongly

## O=C(NCCOCCOCCOCCOCCOCCOCCOCCOCCOCCOCCOCCOCCOCCOCCOCCOCCOCCOCCOCCOCCOCCOCCOCCNC(=O)c1cccc(B(O)O)c1)c1cccc(B(O)O)c1 [Compound 7, N,N'-(polyoxyethylenebis(amine))bis(3-phenylboronic acid)amide]
[2]; [17]
  MIC: > 25 mM
[3]
  MIC: > 25 mM
[4]
  MIC: 25 mM (≈ 34200 µg/mL)
[5]; [18]
  MIC: > 25 mM

## monosialodihexosylganglioside [GM3, reference compound]
[1]
  BLI binding to boronic acid functionalised sensor: no detectable binding

## O=C(NCCNC(=O)c1cccc(B(O)O)c1)c1cccc(B(O)O)c1 [Compound 4, N,N'-(ethylenediamine)bis(3-phenylboronic acid)amide]
[2]; [17]
  MIC: > 25 mM
[6]; [19]
  MIC: 3.13 mM
[6]; [20]
  MIC: 1.56 to 3.13 mM (≈ 555 to 1110 µg/mL)
[7]
  Outcome, interaction profile with Rifampicin: Additive (values in between correspond to additivity)
  ΣFIC, interaction profile with Rifampicin: 2
[3]
  MIC: 0.78 mM (≈ 278 µg/mL)
[8]
  Outcome, interaction profile with Meropenem: Additive (values in between correspond to additivity)
  ΣFIC, interaction profile with Meropenem: 1
[9]
  Jurkat (MIC99): 12.5 mM
[4]
  MIC: 3.13 mM (≈ 1110 µg/mL)
[10]
  MBC: 6.25 mM (≈ 2220 µg/mL)
[5]; [18]
  MIC: > 25 mM
[11]
  A549 (MIC99): 25 mM
[12]
  Caco-2 (MIC99): 50 mM
[13]
  ConA agglutination: No inhibition
[14]
  hemolysis at 1 h: 0%

## O=C(NCCOCCOCCNC(=O)c1cccc(B(O)O)c1)c1cccc(B(O)O)c1 [Compound 5, N,N'-(2,2-(ethylenedioxy)bis(ethylamine))bis(3-phenylboronic acid)amide]
[2]; [17]
  MIC: > 25 mM
[6]; [19]
  MIC: 3.13 mM
[6]; [20]
  MIC: 1.56 to 3.13 mM (≈ 693 to 1390 µg/mL)
[7]
  Outcome, interaction profile with Rifampicin: Additive (values in between correspond to additivity)
  ΣFIC, interaction profile with Rifampicin: 2
[3]
  MIC: 0.78 to 1.56 mM (≈ 346 to 693 µg/mL)
[8]
  Outcome, interaction profile with Meropenem: Additive (values in between correspond to additivity)
  ΣFIC, interaction profile with Meropenem: 0.625
[9]
  Jurkat (MIC99): 12.5 mM
[4]
  MIC: 3.13 mM (≈ 1390 µg/mL)
[10]
  MBC: 6.25 mM (≈ 2780 µg/mL)
[5]; [18]
  MIC: > 25 mM
[11]
  A549 (MIC99): 25 mM
[12]
  Caco-2 (MIC99): 50 mM
[13]
  ConA agglutination: No inhibition
[14]
  hemolysis at 1 h: 0%

## dextran [reference compound]
[1]
  BLI binding to boronic acid functionalised sensor: no binding was observed

## Trehalose Dimycolate [TDM]
[1]; read-out: Kd
  Kd: 4 µM
[1]
  BLI binding to boronic acid functionalised sensor: interacted strongly

## O=C(CCN(CCOCCOCCN(CCC(=O)NCCOCCOCCNC(=O)c1cccc(B(O)O)c1)CCC(=O)NCCOCCOCCNC(=O)c1cccc(B(O)O)c1)CCC(=O)NCCOCCOCCNC(=O)c1cccc(B(O)O)c1)NCCOCCOCCNC(=O)c1cccc(B(O)O)c1 [Compound 8, 2,2’-(Ethylenedioxy)bis(ethylamine) G1 PAMAM tetra(3-phenylboronic acid)amide dendrimer]
[2]
  MIC Gram-negative, Escherichia coli: >25 mM
[6]
  MIC Mycobacteria, Mycobacterium tuberculosis: 0.78 to 1.56 mM
  MIC against Mtb: 0.78 mM (≈ 1210 µg/mL)
[3]; resazurin reduction microtitre plate assay
  MIC Mycobacteria, Mycobacterium bovis BCG: 1.56 mM (≈ 2420 µg/mL)
[15]
  A549 (MIC99): > 25 mM
[4]
  MIC Mycobacteria, Mycobacterium smegmatis: 0.78 mM (≈ 1210 µg/mL)
[5]
  MIC Gram-negative, Pseudomonas putida: >25 mM
[16]
  Haemolysis (%): 4.5%

## lipopolysaccharide [LPS, reference compound]
[1]
  BLI binding to boronic acid functionalised sensor: weak binding

## CC1(C)[C@H](C(=O)O)N2C(=O)C[C@H]2S1(=O)=O [Sulbactam, reference compound]
[6]; [19]
  MIC: 0.134 mM
[8]
  Outcome, interaction profile with Meropenem: Synergistic (ΣFICs of ≤0.5 designate synergistic activity)
  ΣFIC, interaction profile with Meropenem: 0.313
  Interaction with meropenem in checkerboard assay (words, Figure S7): synergistic activity
[8]; listed as sulbactam
  ΣFIC, interaction profile with Meropenem: 0.3

## O=C(O)c1ccc(B(O)O)cc1 [Compound 3, reference compound]
[2]; Escherichia coli, read-out: MIC Gram-negative, Escherichia coli
  MIC: > 25 mM
[6]; Mycobacterium tuberculosis, read-out: MIC Mycobacteria, Mycobacterium tuberculosis
  MIC: 6.25 mM (≈ 1040 µg/mL)
[3]
  MIC: 6.25 mM (≈ 1040 µg/mL)
[4]
  MIC: 25 mM (≈ 4150 µg/mL)
[5]; Pseudomonas putida, read-out: MIC Gram-negative, Pseudomonas putida
  MIC: 25 mM (≈ 4150 µg/mL)
[11]
  A549 (MIC99): > 25 mM
[14]
  hemolysis at 1 h: 0.9%

## O=C(NCCCOCCOCCOCCCNC(=O)c1cccc(B(O)O)c1)c1cccc(B(O)O)c1 [Compound 6, N,N'-(4,7,10-trioxa-1,13-tridecanediamine)bis(3-phenylboronic acid)amide]
[2]; [17]
  MIC: > 25 mM
[6]; [19]
  MIC: 1.56 mM
[6]; [20]
  MIC: 1.56 to 3.13 mM (≈ 805 to 1620 µg/mL)
[7]
  Outcome, interaction profile with Rifampicin: Additive (values in between correspond to additivity)
  ΣFIC, interaction profile with Rifampicin: 2
[3]
  MIC: 0.78 to 1.56 mM (≈ 403 to 805 µg/mL)
[8]
  Outcome, interaction profile with Meropenem: Additive (values in between correspond to additivity)
  ΣFIC, interaction profile with Meropenem: 0.625
  Interaction with meropenem in checkerboard assay (words, Figure S7): additivity
[9]
  Jurkat (MIC99): 25 mM
[4]
  MIC: 3.13 mM (≈ 1620 µg/mL)
[10]
  MBC: 6.25 mM (≈ 3230 µg/mL)
[5]; [18]
  MIC: > 25 mM
[11]
  A549 (MIC99): 25 mM
[12]
  Caco-2 (MIC99): 25 mM
[13]
  ConA agglutination: No inhibition
[14]
  hemolysis at 1 h: 0%

## Lipomannan [LM]
[1]
  BLI binding to boronic acid functionalised sensor: interacted strongly

## O=C(O)c1cccc(B(O)O)c1 [Compound 2, reference compound]
[2]; [17]
  MIC: > 25 mM
[6]; [20]
  MIC: 6.25 to 12.5 mM (≈ 1040 to 2070 µg/mL)
[3]
  MIC: 12.5 mM (≈ 2070 µg/mL)
[4]
  MIC: 12.5 to 25 mM (≈ 2070 to 4150 µg/mL)
[5]; [18]
  MIC: 12.5 to 25 mM (≈ 2070 to 4150 µg/mL)
[11]
  A549 (MIC99): > 25 mM
[14]
  hemolysis at 1 h: 4.5%

## Trehalose Monomycolate [TMM]
[1]; read-out: Kd
  Kd: 12 µM
[1]
  BLI binding to boronic acid functionalised sensor: interacted strongly

## Phosphatidylinositol Mannoside 6 [PIM6]
[1]
  BLI binding to boronic acid functionalised sensor: weak binding affinity

## Phosphatidylinositol Mannosides 1 & 2 [PIM 1 + 2]
[1]
  BLI binding to boronic acid functionalised sensor: very weak binding

## Galactan [reference compound]
[1]
  BLI binding to boronic acid functionalised sensor: no binding was observed

## OB(O)c1ccccc1 [Compound 1, reference compound]
[2]; [17]
  MIC: 25 mM (≈ 3050 µg/mL)
[6]; [20]
  MIC: 6.25 to 12.5 mM (≈ 762 to 1520 µg/mL)
[3]
  MIC: 3.13 mM (≈ 382 µg/mL)
[4]
  MIC: 12.5 to 25 mM (≈ 1520 to 3050 µg/mL)
[5]; [18]
  MIC: 12.5 to 25 mM (≈ 1520 to 3050 µg/mL)
[11]
  A549 (MIC99): 50 mM
[14]
  hemolysis at 1 h: 0%
